Assays:
[1] = target: T1, human M1 receptor (Homo sapiens, UniProt P11229); assay: R-SAT assay M1; format: cell-based; conditions: Table 3, M1; percent response of reference Carbachol
T1 construct: expressed in transfected cells; host or cells: NIH/3T3

[2] = system: reserpine-pretreated mice; assay: Motor activity in monoamine-depleted (reserpine-pretreated) mice, video tracking; conditions: for motor activity (distance moved, DM 1.5): reserpine 10 mg/kg ip 20 h prior, test drug ip just prior to recording, first 30 minutes, vs reserpine only group
[3] = target: T2, human 5-HT2C(vgv) receptor (Homo sapiens, UniProt P28335, I156V/I160V/N158G); assay: R-SAT assay 5-HT2C; format: cell-based; conditions: Table 3, 5-HT2C; for EC50: negative logarithm of EC50 in molar; for Eff (%): percent response of reference 5-CT
T2 construct: expressed in transfected cells; host or cells: NIH/3T3
T2 sequence (P28335 33-458 I156V/N158G/I160V): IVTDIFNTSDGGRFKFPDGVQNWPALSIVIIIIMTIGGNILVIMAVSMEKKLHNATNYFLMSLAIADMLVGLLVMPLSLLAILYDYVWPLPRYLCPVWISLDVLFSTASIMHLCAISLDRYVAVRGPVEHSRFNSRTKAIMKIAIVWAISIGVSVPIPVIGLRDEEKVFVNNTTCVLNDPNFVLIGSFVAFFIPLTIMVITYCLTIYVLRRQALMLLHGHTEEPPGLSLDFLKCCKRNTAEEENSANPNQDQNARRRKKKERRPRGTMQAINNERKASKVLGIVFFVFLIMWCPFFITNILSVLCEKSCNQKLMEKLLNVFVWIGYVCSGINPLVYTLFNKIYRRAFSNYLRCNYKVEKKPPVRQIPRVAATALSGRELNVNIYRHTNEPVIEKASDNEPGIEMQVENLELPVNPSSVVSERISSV

[4] = target: T3, human 5-HT1A receptor (Homo sapiens, UniProt P08908); assay: R-SAT assay 5-HT1A; format: cell-based; conditions: Table 3, 5-HT1A; percent response of reference 8-OH-DPAT
T3 construct: expressed in transfected cells; host or cells: NIH/3T3

[5] = system: drug naive mice; assay: Head twitch induction in mice; format: in vivo; conditions: DOI 1 mg/kg ip, OSU6162 enantiomers 9.375-300 μmol/kg ip, 10 min before registration
Description: The animals used in the head twitch experiments were individually placed in Macrolon type II cages and allowed to habituate to these test cages during 30 minutes before the video registration of behavior began. […] The animals were videotaped for 10 minutes; the behavior was scored during the first 5 minutes. The number of head twitches was counted from the videotapes by a person blind to the treatment.
In FIG. 5, the number of head twitches produced during 5 minutes is shown. The mice were habituated to the test cages during 30 minutes before the video registration of behavior began. […] Shown are means and SEM, n=6-12.

[6] = target: human dopamine transporter (DAT) (Homo sapiens, UniProt Q01959); assay: Equilibrium radioligand binding to DAT; conditions: displacement of 125I-RTI-55
Description: (§1) Cells were not centrifuged following cell scraping, but were collected directly into the ice-cold nitrogen cavitation chamber.
(§2) Membranes were prepared as described above. […] Binding reactions were terminated by filtration through UniFilter-96GF/B filters (from Perkin-Elmer, presoaked with 0.1% polyethylenimine for 1 h) with a Brandel 96-well harvester. Filters were washed with ice-cold wash buffer (50 mM Tris, 120 mM NaCl, pH7.4; 500 ml/plate) and then allowed to air-dry for 30 min. 50 μl MacrosScint-20 scintillation cocktail was added to each well, the plates were sealed, and then counted on a Top-Count (Packard).

[7] = target: T4, human alpha1B receptor (Homo sapiens, UniProt P35368); assay: R-SAT assay α1B; format: cell-based; conditions: Table 3, α1B; percent response of reference Phenylephrine
T4 construct: expressed in transfected cells; host or cells: NIH/3T3 cells, transient transfection, pSI vector
T4 sequence (P35368 1-520): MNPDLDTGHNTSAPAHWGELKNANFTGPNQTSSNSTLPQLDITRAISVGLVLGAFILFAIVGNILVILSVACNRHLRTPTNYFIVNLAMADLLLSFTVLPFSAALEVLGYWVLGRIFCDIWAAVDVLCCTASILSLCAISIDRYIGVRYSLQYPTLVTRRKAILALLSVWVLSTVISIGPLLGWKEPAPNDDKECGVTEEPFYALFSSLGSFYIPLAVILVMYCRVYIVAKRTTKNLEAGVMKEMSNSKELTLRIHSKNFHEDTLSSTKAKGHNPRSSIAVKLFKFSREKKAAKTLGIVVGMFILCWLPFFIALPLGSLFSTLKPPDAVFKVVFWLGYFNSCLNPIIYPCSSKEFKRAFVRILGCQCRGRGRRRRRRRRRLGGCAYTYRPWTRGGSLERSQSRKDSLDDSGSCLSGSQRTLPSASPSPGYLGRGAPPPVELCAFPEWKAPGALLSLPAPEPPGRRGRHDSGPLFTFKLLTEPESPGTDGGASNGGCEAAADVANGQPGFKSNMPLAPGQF

[8] = target: human norepinephrine transporter (NET) (Homo sapiens, UniProt P23975); assay: Equilibrium radioligand binding to NET; conditions: displacement of 3H-Imipramine
Description: as §1, §2

[9] = target: T5, human M3 receptor (Homo sapiens, UniProt P20309); assay: R-SAT assay M3; format: cell-based; conditions: Table 3, M3; percent response of reference Carbachol
T5 construct: expressed in transfected cells; host or cells: NIH/3T3

[10] = target: T6, human 5-HT1F receptor (Homo sapiens, UniProt P30939); assay: R-SAT assay 5-HT1F; format: cell-based; conditions: Table 3, 5-HT1F; percent response of reference BRL 54443
T6 construct: expressed in transfected cells; host or cells: NIH/3T3
T6 sequence (P30939 1-366): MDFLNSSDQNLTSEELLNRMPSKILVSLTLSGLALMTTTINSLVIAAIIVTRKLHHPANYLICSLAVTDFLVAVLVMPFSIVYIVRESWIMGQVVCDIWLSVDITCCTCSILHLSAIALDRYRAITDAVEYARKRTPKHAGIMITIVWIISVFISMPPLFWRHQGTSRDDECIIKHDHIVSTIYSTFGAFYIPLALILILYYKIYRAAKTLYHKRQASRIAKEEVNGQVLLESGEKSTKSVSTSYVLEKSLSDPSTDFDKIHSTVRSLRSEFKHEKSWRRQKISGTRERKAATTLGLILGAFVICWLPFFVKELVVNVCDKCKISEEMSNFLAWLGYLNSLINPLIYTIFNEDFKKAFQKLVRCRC

[11] = target: D2 receptors (Homo sapiens, UniProt P14416); assay: GTPγS binding assay at D2; format: biochemical; parameters: expressed in transfected cells
Description: as §1
50 μl/well Wheat-Germ Agglutinin SPA beads (Perkin Elmer, Shelton, Conn.) were added to the plates and the plates incubated for 1 hour. The plates were then centrifuged at 1,000×g for 10 minutes and read on a Top Count NXT (Perkin Elmer, Shelton, Conn.).
To relate the results observed in R-SAT™ to a more conventional assay system, these ligands were also tested for the ability to induce GTPγS binding through D2 receptors.

[12] = target: human 5-HT2A receptors (Homo sapiens, UniProt P28223); assay: BRET2 beta-arrestin-2 recruitment assay at 5-HT2A; format: cell-based; parameters: expressed in transfected cells; host or cells: HEK-293T; conditions: mean ± SEM; for EC50: negative logarithm of EC50 in molar (M), HEK 293T cells, read-out: BRET2 pEC50 (converted); for BRET2 Eff %: percent response of reference ligand 5-HT
human 5-HT2A receptors, sequence (P28223 whole entry): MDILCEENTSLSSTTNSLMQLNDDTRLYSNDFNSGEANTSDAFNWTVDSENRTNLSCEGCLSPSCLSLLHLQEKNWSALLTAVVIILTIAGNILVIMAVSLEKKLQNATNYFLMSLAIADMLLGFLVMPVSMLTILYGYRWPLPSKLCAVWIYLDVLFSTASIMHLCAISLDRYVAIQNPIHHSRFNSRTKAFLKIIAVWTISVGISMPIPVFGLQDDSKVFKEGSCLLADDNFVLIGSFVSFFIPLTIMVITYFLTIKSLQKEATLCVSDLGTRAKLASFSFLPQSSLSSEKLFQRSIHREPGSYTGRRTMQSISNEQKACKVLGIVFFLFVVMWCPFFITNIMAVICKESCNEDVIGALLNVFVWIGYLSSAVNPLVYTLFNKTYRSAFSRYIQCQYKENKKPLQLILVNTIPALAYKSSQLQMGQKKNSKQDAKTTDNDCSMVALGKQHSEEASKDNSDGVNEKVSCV
Description: BRET-2 signals were measured using the multiplate reader Mithras 940LB (Berthold Technologies, Bad Wildbad, Germany) and were calculated as the ratio between the Renilla luciferase emission and the GFP2 emission corrected by the background emissions of non-transfected cells.

D2 receptors, sequence (P14416 1-414 isoform P14416-2): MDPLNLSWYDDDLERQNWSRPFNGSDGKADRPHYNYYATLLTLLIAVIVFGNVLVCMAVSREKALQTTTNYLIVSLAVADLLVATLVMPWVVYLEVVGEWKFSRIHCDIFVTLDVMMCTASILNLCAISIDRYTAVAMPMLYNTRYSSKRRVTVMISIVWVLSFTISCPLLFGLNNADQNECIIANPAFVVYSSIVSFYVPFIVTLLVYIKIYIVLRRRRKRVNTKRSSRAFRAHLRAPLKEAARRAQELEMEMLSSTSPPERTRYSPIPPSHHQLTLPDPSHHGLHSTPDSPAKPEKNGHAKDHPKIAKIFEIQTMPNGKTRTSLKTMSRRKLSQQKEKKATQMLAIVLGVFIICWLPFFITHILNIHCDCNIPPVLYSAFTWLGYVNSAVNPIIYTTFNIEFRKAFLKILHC
human norepinephrine transporter (NET), sequence (P23975 whole entry): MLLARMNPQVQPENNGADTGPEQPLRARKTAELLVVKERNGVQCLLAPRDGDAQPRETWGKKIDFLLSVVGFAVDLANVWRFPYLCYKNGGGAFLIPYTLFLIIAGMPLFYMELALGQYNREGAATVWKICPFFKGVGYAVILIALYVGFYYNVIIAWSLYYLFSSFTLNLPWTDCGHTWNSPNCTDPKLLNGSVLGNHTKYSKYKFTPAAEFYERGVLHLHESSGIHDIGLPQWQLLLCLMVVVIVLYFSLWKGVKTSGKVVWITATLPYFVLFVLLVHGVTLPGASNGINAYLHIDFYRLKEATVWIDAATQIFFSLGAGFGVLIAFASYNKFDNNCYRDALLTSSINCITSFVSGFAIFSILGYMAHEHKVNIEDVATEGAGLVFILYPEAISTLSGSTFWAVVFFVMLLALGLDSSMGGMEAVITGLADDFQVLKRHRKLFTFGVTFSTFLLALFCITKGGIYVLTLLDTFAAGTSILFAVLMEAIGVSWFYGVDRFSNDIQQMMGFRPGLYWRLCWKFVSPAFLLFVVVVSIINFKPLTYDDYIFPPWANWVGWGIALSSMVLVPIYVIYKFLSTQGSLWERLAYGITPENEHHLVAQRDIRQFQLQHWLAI
T5 sequence (P20309 whole entry): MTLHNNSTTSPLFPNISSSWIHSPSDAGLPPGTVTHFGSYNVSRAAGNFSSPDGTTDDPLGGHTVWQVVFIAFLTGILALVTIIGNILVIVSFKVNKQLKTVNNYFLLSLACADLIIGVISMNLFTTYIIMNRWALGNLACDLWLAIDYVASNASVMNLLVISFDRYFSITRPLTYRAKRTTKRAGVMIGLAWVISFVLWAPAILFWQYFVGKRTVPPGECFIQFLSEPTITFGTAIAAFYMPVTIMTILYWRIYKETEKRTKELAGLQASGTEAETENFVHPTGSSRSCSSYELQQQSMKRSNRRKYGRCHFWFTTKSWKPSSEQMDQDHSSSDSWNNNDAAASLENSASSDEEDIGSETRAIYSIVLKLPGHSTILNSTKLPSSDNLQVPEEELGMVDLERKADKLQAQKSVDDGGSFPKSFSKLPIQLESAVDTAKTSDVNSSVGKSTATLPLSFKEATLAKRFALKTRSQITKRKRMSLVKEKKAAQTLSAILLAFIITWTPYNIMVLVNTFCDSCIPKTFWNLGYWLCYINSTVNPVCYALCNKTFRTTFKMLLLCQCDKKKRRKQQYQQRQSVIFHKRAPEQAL
human dopamine transporter (DAT), sequence (Q01959 whole entry): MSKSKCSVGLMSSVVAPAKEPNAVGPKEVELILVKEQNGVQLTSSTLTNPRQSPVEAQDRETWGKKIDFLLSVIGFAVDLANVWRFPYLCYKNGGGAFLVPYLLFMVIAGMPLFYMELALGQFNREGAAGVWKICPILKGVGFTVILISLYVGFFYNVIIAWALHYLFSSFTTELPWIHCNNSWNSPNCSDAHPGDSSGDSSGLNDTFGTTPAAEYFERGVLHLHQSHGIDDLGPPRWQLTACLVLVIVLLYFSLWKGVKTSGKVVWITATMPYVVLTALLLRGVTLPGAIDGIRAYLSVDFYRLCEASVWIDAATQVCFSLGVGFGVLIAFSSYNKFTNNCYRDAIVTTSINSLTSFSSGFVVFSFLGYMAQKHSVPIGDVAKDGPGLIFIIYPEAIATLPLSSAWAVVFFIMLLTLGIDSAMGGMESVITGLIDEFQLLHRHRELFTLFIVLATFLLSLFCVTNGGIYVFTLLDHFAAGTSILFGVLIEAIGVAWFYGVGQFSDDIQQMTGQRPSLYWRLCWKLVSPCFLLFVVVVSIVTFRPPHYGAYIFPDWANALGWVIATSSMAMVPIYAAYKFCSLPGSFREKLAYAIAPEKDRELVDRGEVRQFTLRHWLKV
T1 sequence (P11229 whole entry): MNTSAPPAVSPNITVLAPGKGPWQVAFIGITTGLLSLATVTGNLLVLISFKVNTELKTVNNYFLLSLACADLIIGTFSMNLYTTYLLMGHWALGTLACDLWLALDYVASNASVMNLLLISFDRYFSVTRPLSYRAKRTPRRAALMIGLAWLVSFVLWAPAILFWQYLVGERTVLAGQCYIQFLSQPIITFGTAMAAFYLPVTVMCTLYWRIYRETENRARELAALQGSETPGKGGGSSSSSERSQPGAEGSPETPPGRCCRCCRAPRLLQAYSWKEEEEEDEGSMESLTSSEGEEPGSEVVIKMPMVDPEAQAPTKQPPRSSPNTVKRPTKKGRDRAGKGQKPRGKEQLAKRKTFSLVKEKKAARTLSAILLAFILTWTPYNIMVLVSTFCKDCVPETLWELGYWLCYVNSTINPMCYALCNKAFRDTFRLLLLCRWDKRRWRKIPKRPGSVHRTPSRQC
T3 sequence (P08908 whole entry): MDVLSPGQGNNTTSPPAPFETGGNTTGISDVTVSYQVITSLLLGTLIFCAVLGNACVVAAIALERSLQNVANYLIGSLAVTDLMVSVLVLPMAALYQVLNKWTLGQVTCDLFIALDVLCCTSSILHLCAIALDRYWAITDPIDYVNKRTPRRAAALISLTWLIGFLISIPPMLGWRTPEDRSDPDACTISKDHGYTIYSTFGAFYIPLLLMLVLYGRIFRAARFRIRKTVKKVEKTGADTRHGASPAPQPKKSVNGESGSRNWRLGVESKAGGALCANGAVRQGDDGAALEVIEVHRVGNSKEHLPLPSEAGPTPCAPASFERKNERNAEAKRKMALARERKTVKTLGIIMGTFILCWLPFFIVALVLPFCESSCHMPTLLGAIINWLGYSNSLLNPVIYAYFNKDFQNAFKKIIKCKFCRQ

SMILES	Eff (%) [1] [%]	motor activity (distance moved, DM 1.5) [2]	effect on motor activity compared with the (−)-enantiomer ([2]; reserpine-pretreated mice, 250 μmol/kg ip, p<0.01)	EC50 [3] [µM]	Eff (%) [3] [%]	Eff (%) [4] [%]	head twitches produced during 5 minutes [5]	Inh % [6] [%]	Eff (%) [7] [%]	Inh % [8] [%]	Eff (%) [9] [%]	Eff (%) [10] [%]	Emax at 50 µM ([11]; read-out: GTPγS Eff %, response at 50 μM) [%]	EC50 [12] [M]	BRET2 Eff % ([12]; listed as (+) OSU-6162) [%]	BRET2 Eff % ([12]; listed as (+)-OSU-6162) [%]	EC50 ([11]; negative logarithm of EC50 in molar, HEK293T membranes, mean ± SEM, read-out: GTPγS pEC50 (converted)) [µM]	GTPγS Eff % ([11]; percent response of reference ligand dopamine, mean ± SEM) [%]	BRET2 Eff % ([12]; listed as (−) OSU-6162)	BRET2 Eff % ([12]; listed as (−)-OSU-6162) [%]
CCCN1CCC[C@H](c2cccc(S(C)(=O)=O)c2)C1 [(+)-OSU6162, (3R)-3-[3-(methylsulfonyl)phenyl]-1-propylpiperidine]	11	statistically significant increase in motor activity at 125, 250 and 500 μmol/kg, with a peak response at 250 μmol/kg	much larger effect on motor activity	31.6	84	24	produced head twitches but to a lesser degree than DOI	5	10	14	6	22	36	1.58e-05	~80	84 ± 2				
CCCN1CCC[C@@H](c2cccc(S(C)(=O)=O)c2)C1 [(−)-OSU6162, (3S)-3-[3-(methylsulfonyl)phenyl]-1-propylpiperidine]	5	statistically significant increase in motor activity at 125 and 250 μmol/kg		7.94	68	14	produced head twitches but to a lesser degree than DOI	6	−1	11	0	30		1e-05			0.501	37 ± 9	approximately 60%	63 ± 2

Source: patent US20130197032A1, “[…] COMPOUNDS FOR THE TREATMENT OF NEUROLOGICAL AND […] DISORDERS” (A. CARLSSON RESEARCH AB, priority 2010, published 2013)
